Data on 13 compounds can be found in PubChem BioAssay (NCI).

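Results reflect a 48-hour exposure of cells in 96-well plates to compound at five concentrations. TGI: concentration producing complete growth inhibition.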

Test systems include MOLT-4 leukemia; OVCAR-5 ovarian; SK-MEL-5 melanoma; HOP-62 NSCLC; MDA-MB-231 breast; HCC-2998 colon; NCI-H460 lung; OVCAR-4 ovarian; SF-295 CNS; T-47D breast.
Assay in all cases: DTP human tumour cell line panel, 48 h

Regarding `COc1cccc(-c2c(-c3ccccc3)[nH]c(C)c2C(=O)ONC(=O)c2ccccc2)c1`, the TGI in the test on MOLT-4 leukemia turned out to be 18.2 µM; in the test on OVCAR-5 ovarian, 26.2 µM; with SK-MEL-5 melanoma, 23.9 µM; in the test with HOP-62 NSCLC it was 10 µM; in the test on MDA-MB-231 breast, 22.9 µM; in the test on HCC-2998 colon it was 27.4 µM. Moreover, the TGI with NCI-H460 lung is 11.4 µM; in the test with OVCAR-4 ovarian it was greater than 24.5 µM; in the test on SF-295 CNS, 7.64 µM; in the test on T-47D breast, 23.9 µM.
Regarding `COC1CC(O[C@H]2CC[C@@]3(C)[C@@H](CC[C@]4(O)[C@@H]3CC[C@]3(C)[C@@H](C(C)=O)[C@H](OC(=O)CC(C)C)[C@@H](OC(=O)c5ccccc5)[C@@]34O)C2)OC(C)C1OC1CC(OC)C(OC2OC(C)C(O)C(OC)C2O)C(C)O1` (stereo not given in full), the TGI was 22.4 µM in the test with MOLT-4 leukemia; greater than 25 µM in the test with OVCAR-5 ovarian; greater than 25 µM in the test with SK-MEL-5 melanoma; greater than 25 µM in the test on HOP-62 NSCLC; greater than 25 µM with MDA-MB-231 breast; greater than 25 µM in the test with HCC-2998 colon. For the same compound, the TGI with NCI-H460 lung, in the test on OVCAR-4 ovarian, in the test with SF-295 CNS and in the test on T-47D breast was greater than 25 µM each time.
In the case of `N#Cc1c(N2CCN(c3ccc([N+](=O)[O-])cc3)CC2)[n+](=O)c2ccccc2n1[O-]`, the TGI in the test on MOLT-4 leukemia, with OVCAR-5 ovarian, with SK-MEL-5 melanoma, with HOP-62 NSCLC, with MDA-MB-231 breast and in the test on HCC-2998 colon was greater than 100 µM in each case. Moreover, the TGI in the test on NCI-H460 lung, in the test on OVCAR-4 ovarian, in the test with SF-295 CNS and in the test with T-47D breast was greater than 100 µM each time.
With `Cn1c(N=P(c2ccccc2)(c2ccccc2)c2ccccc2)c([N+](=O)[O-])c(=O)n(C)c1=O`, the TGI in the test with MOLT-4 leukemia is 66.8 µM; with OVCAR-5 ovarian, greater than 100 µM; in the test with SK-MEL-5 melanoma, greater than 100 µM; in the test with HOP-62 NSCLC it was greater than 100 µM; in the test with MDA-MB-231 breast, greater than 100 µM; with HCC-2998 colon it was greater than 100 µM. In addition, the TGI in the test with NCI-H460 lung, in the test with OVCAR-4 ovarian, in the test on SF-295 CNS and in the test on T-47D breast was greater than 100 µM each time.
Regarding `Cn1c(=O)c(Cl)c(N=[N+]=[N-])c2ccccc21`, the TGI in the test on MOLT-4 leukemia, with OVCAR-5 ovarian, in the test on SK-MEL-5 melanoma, in the test on HOP-62 NSCLC, in the test with MDA-MB-231 breast and in the test on HCC-2998 colon was greater than 100 µM in each case. Besides, the concentration for total growth inhibition (TGI) in the test with NCI-H460 lung, in the test with OVCAR-4 ovarian, with SF-295 CNS and with T-47D breast was greater than 100 µM each time.
As to `C#CC1NC(=O)C1N(CC)CC` (stereo not given), the TGI with MOLT-4 leukemia, with OVCAR-5 ovarian, in the test on SK-MEL-5 melanoma, in the test with HOP-62 NSCLC, with MDA-MB-231 breast and with HCC-2998 colon was greater than 100 µM throughout. The TGI with NCI-H460 lung, in the test on OVCAR-4 ovarian, with SF-295 CNS and in the test with T-47D breast was greater than 100 µM in each case.
Take `O=[N+]([O-])C(=C/c1cccs1)/C(=C\c1cccs1)[N+](=O)[O-]`: the TGI in the test with MOLT-4 leukemia came out at 1.3 µM; in the test with OVCAR-5 ovarian, 7.21 µM; with SK-MEL-5 melanoma it was 2.94 µM; in the test on HOP-62 NSCLC it was 5.39 µM; with MDA-MB-231 breast, 0.864 µM; in the test on HCC-2998 colon, 2.58 µM. Further, the TGI came to 5.31 µM in the test with NCI-H460 lung, 7.41 µM in the test with OVCAR-4 ovarian, 4.92 µM in the test on SF-295 CNS and 7.74 µM with T-47D breast.
With `O=c1oc2ccc([N+](=O)[O-])cc2cc1Br`, the TGI with MOLT-4 leukemia, with OVCAR-5 ovarian, in the test with SK-MEL-5 melanoma, in the test on HOP-62 NSCLC, in the test with MDA-MB-231 breast and in the test with HCC-2998 colon was greater than 100 µM each time. For the same compound, the concentration for total growth inhibition (TGI) with NCI-H460 lung, in the test with OVCAR-4 ovarian, in the test on SF-295 CNS and in the test on T-47D breast was greater than 100 µM throughout.
For the compound `Clc1c2ccccc2nc2c1[nH]c1ccccc12`, the TGI in the test with MOLT-4 leukemia is 9.61 µM; with OVCAR-5 ovarian it was greater than 100 µM; in the test with SK-MEL-5 melanoma it was 21.3 µM; in the test with HOP-62 NSCLC, greater than 100 µM; in the test with MDA-MB-231 breast it was 46.7 µM; in the test on HCC-2998 colon it was greater than 100 µM. The TGI in the test on NCI-H460 lung, in the test on OVCAR-4 ovarian, with SF-295 CNS and in the test with T-47D breast was greater than 100 µM throughout.
For `Cc1nnc(Sc2nc(C#N)c(C#N)nc2Sc2nnc(C)s2)s1`, the TGI in the test on MOLT-4 leukemia is 5.47 µM; in the test with OVCAR-5 ovarian it was 46.5 µM; with SK-MEL-5 melanoma it was 46.2 µM; with HOP-62 NSCLC it was greater than 74.3 µM; in the test on MDA-MB-231 breast it was 37.9 µM; with HCC-2998 colon it was 51.8 µM. The TGI in the test on NCI-H460 lung is greater than 76.1 µM; in the test with OVCAR-4 ovarian, greater than 80.1 µM; in the test with SF-295 CNS it was 73.8 µM; in the test on T-47D breast, 12.9 µM.
For the compound `CCCCc1c2c(c(C)c3c1C(=O)OC3)Oc1ccccc1O2`, the TGI was greater than 100 µM in the test on MOLT-4 leukemia; greater than 100 µM in the test on OVCAR-5 ovarian; greater than 26.2 µM in the test with SK-MEL-5 melanoma; greater than 68.3 µM with HOP-62 NSCLC; greater than 55.6 µM in the test with MDA-MB-231 breast; 3.22 µM in the test with HCC-2998 colon. Further, the TGI in the test with NCI-H460 lung is 18.2 µM; in the test on OVCAR-4 ovarian, greater than 95.6 µM; in the test on SF-295 CNS, greater than 51.4 µM; with T-47D breast, greater than 100 µM.
Regarding `Cc1ccc(N=C2C(c3ccccc3)=C(SC3=C(c4ccccc4)C(=Nc4ccc(C)cc4)c4ccccc43)c3ccccc32)cc1`, the concentration for total growth inhibition (TGI) in the test with MOLT-4 leukemia is greater than 100 µM; in the test with OVCAR-5 ovarian, greater than 100 µM; with SK-MEL-5 melanoma, greater than 100 µM; in the test with HOP-62 NSCLC, 22.9 µM; with MDA-MB-231 breast, 38.7 µM; in the test on HCC-2998 colon, greater than 54.1 µM. Also, the total growth inhibition concentration (TGI) in the test on NCI-H460 lung is 36.3 µM; in the test with OVCAR-4 ovarian, 17.2 µM; with SF-295 CNS it was 27.4 µM; in the test with T-47D breast, greater than 100 µM.
In the case of `Cc1cc2nc(N3C(=O)/C(=C/c4ccc(N(C)C)cc4)N=C3c3ccccc3)sc2cc1C`, the TGI in the test with MOLT-4 leukemia was 49.8 µM; with OVCAR-5 ovarian, 84.2 µM; in the test on SK-MEL-5 melanoma, 44.4 µM; in the test with HOP-62 NSCLC, greater than 100 µM; in the test on MDA-MB-231 breast, 96 µM; with HCC-2998 colon, 37.6 µM. The TGI with NCI-H460 lung, with OVCAR-4 ovarian, with SF-295 CNS and in the test on T-47D breast was greater than 100 µM throughout.

Broadly, the TGI is the concentration giving total growth inhibition. A low value points to more potent growth arrest.
